Data taken from patent US12433877B2, “Sustained release drug delivery systems and related methods” (Durect Corporation, priority 2021, dated 2025).
Where a name gives a salt, the structure may show the parent alone.

Tests used:
Format in all cases: in vivo, human
[1] = test system: patients undergoing elective arthroscopic shoulder surgery; assay: Example 1 / Study 1: pain intensity and opioid rescue after arthroscopic shoulder surgery; settings: ITT, HCl
[2] = test system: patients undergoing a variety of general surgical procedures; assay: Example 18: safety, Holter monitoring
From the text: Patient safety was carefully monitored throughout the trial with traditional assessments of AEs, vital signs, routine laboratory testing, and Holter monitoring (i.e., continuous recording of electrocardiogram) for 3 days after dosing. Special attention was given to cardiovascular and neurological AE, as bupivacaine toxic effects are manifest in those two body systems. In addition, special assessments were done to monitor surgical wound condition and healing over the 30 days of the trial. There were no consistent treatment-related effects on vital signs. Changes in serum chemistry and hematological parameters were those expected after major surgery, with few consistent differences between treatment groups. Cardiac safety was carefully studied using Holter monitoring for 72 hours post-dose, starting about one hour before surgery. In addition, baseline 24-hour ambulatory Holter monitoring was done after the screening visit.

[3] = test system: patients undergoing elective arthroscopic shoulder surgery; assay: Example 1 / Study 1: adverse events and 6-month follow-up safety
From the text: The incidence of adverse events (AEs); the incidence of bupivacaine-related CNS side effects; clinical laboratory tests; vital signs; 12-lead ECGs; and physical examinations.
Evaluation by the investigator of wound healing and tissue conditions at the surgical wound on Days 7 and 14, and at the 6-month follow-up visit. An MRI of the shoulder as well as a functionality assessment of the shoulder using the Constant-Murley score were to be performed at the 6-month follow-up visit.
There were three studies evaluating the safety of Formulation A administered during shoulder surgery. […]
Additional follow-up safety data consisting of shoulder MRI, physical examination of the shoulder, and assessments of wound healing were collected at 6 months in Study 1 and at 18 months in Study 2. […]

[4] = test system: patients, abdominal surgeries; assay: Adverse reactions pooled from laparoscopic, laparoscopically-assisted and open abdominal surgery studies; settings: adjusted percentage

CCCCN1CCCCC1C(=O)Nc1c(C)cccc1C (stereo not shown) [Bupivacaine HCl]
Total IV morphine equivalent dose of opioid rescue medication, median ([1]; 0-72 hours after surgery): 8.0 mg | Time to first use of opioid rescue medication, median (95% CI) ([1]; Kaplan-Meier): 1.4 (1.0, 4.1) hours | At Least One Cardiovascular TEAE ([2]; Cohort 1, % of subjects): (39%) | At Least One Neurological TEAE ([2]; Cohort 1, % of subjects): (22%) | At Least One Non-Opioid TEAE ([2]; Cohort 1, % of subjects): (94%) | At Least One Serious TEAE ([2]; Cohort 1, % of subjects): (22%) | At Least One TEAE ([2]; Cohort 1, % of subjects): (94%) | At Least One Wound Infection TEAE ([2]; Cohort 1, % of subjects): (11%) | Maximum Relationship to Study Drug: Not Related ([2]; Cohort 1, % of subjects): (72%) | Maximum Relationship to Study Drug: Related ([2]; Cohort 1, % of subjects): (22%) | Maximum Severity: Mild ([2]; Cohort 1, % of subjects): (11%) | Maximum Severity: Moderate ([2]; Cohort 1, % of subjects): (61%) | Maximum Severity: Severe ([2]; Cohort 1, % of subjects): (22%) | At Least One Cardiovascular TEAE ([2]; Cohort 1, number of subjects): 7 | At Least One Neurological TEAE ([2]; Cohort 1, number of subjects): 4 | At Least One Non-Opioid TEAE ([2]; Cohort 1, number of subjects): 17 | At Least One Serious TEAE ([2]; Cohort 1, number of subjects): 4 | At Least One Serious and Related TEAE ([2]; Cohort 1, number of subjects): 0 | At Least One Severe and Related TEAE ([2]; Cohort 1, number of subjects): 0 | At Least One TEAE ([2]; Cohort 1, number of subjects): 17 | At Least One TEAE Leading to Study Discontinuation ([2]; Cohort 1, number of subjects): 0 | At Least One Wound Infection TEAE ([2]; Cohort 1, number of subjects): 2 | Deaths ([2]; Cohort 1, number of subjects): 0 | Maximum Relationship to Study Drug: Not Related ([2]; Cohort 1, number of subjects): 13 | Maximum Relationship to Study Drug: Related ([2]; Cohort 1, number of subjects): 4 | Maximum Severity: Mild ([2]; Cohort 1, number of subjects): 2 | Maximum Severity: Moderate ([2]; Cohort 1, number of subjects): 11 | Maximum Severity: Severe ([2]; Cohort 1, number of subjects): 4 | At Least One Cardiovascular TEAE ([2]; Cohort 2, % of subjects): (10%) | At Least One Neurological TEAE ([2]; Cohort 2, % of subjects): (50%) | At Least One Non-Opioid TEAE ([2]; Cohort 2, % of subjects): (95%) | At Least One Serious TEAE ([2]; Cohort 2, % of subjects): (5%) | At Least One Severe and Related TEAE ([2]; Cohort 2, % of subjects): (5%) | At Least One TEAE ([2]; Cohort 2, % of subjects): (100%) | At Least One TEAE Leading to Study Discontinuation ([2]; Cohort 2, % of subjects): (5%) | At Least One Wound Infection TEAE ([2]; Cohort 2, % of subjects): (5%) | Maximum Relationship to Study Drug: Not Related ([2]; Cohort 2, % of subjects): (50%) | Maximum Relationship to Study Drug: Related ([2]; Cohort 2, % of subjects): (50%) | Maximum Severity: Mild ([2]; Cohort 2, % of subjects): (10%) | Maximum Severity: Moderate ([2]; Cohort 2, % of subjects): (65%) | Maximum Severity: Severe ([2]; Cohort 2, % of subjects): (25%) | At Least One Cardiovascular TEAE ([2]; Cohort 2, number of subjects): 2 | At Least One Neurological TEAE ([2]; Cohort 2, number of subjects): 10 | At Least One Non-Opioid TEAE ([2]; Cohort 2, number of subjects): 19 | At Least One Serious TEAE ([2]; Cohort 2, number of subjects): 1 | At Least One Serious and Related TEAE ([2]; Cohort 2, number of subjects): 0 | At Least One Severe and Related TEAE ([2]; Cohort 2, number of subjects): 1 | At Least One TEAE ([2]; Cohort 2, number of subjects): 20 | At Least One TEAE Leading to Study Discontinuation ([2]; Cohort 2, number of subjects): 1 | At Least One Wound Infection TEAE ([2]; Cohort 2, number of subjects): 1 | Deaths ([2]; Cohort 2, number of subjects): 0 | Maximum Relationship to Study Drug: Not Related ([2]; Cohort 2, number of subjects): 10 | Maximum Relationship to Study Drug: Related ([2]; Cohort 2, number of subjects): 10 | Maximum Severity: Mild ([2]; Cohort 2, number of subjects): 2 | Maximum Severity: Moderate ([2]; Cohort 2, number of subjects): 13 | Maximum Severity: Severe ([2]; Cohort 2, number of subjects): 5 | Constant-Murley score decreased from baseline ([3]; 6-month follow-up): (0%) | Constant-Murley score, follow-up, mean ([3]; 6-month follow-up): 65.6 | Shoulder MRI: Improved compared with pre-surgical MRI ([3]; 6-month follow-up): (24.0%) | Shoulder MRI: No change compared with pre-surgical MRI ([3]; 6-month follow-up): (36.0%) | Shoulder MRI: Worsened compared with pre-surgical MRI ([3]; 6-month follow-up): (40%) | Adverse reaction: Electrocardiogram T wave inversion ([3]; Table 4.1, Study 1): 0% | Adverse reaction: Headache ([3]; Table 4.1, Study 1): 1 (3.4%) | Adverse reaction: Hypoesthesia ([3]; Table 4.1, Study 1): 1 (3.4%) | Adverse reaction: Pruritus generalized ([3]; Table 4.1, Study 1): 0% | All TEAEs ([3]; safety population): 37.9% | TEAE: Alanine aminotransferase increased ([3]; safety population): 0.0% | TEAE: Cardiac disorders ([3]; safety population): 10.3% | TEAE: Gastrointestinal disorders ([3]; safety population): 3.4% | TEAE: General disorders and administration site conditions ([3]; safety population): 0.0% | TEAE: Headache ([3]; safety population): 3.4% | TEAE: Injury, poisoning and procedural complications ([3]; safety population): 0.0% | TEAE: Investigations ([3]; safety population): 6.9% | TEAE: Musculoskeletal and connective tissue disorders ([3]; safety population): 6.9% | TEAE: Musculoskeletal pain ([3]; safety population): 6.9% | TEAE: Nausea ([3]; safety population): 3.4% | TEAE: Nervous system disorders ([3]; safety population): 13.8% | TEAE: Respiratory, thoracic and mediastinal disorders ([3]; safety population): 6.9% | TEAE: Skin and subcutaneous tissue disorders ([3]; safety population): 6.9% | Adverse reaction: Abdominal distension [4]: (4.8%) | Adverse reaction: Abdominal pain [4]: (0.5%) | Adverse reaction: Abdominal pain upper [4]: (1.0%) | Adverse reaction: Anemia [4]: (0.7%) | Adverse reaction: Body temperature increased [4]: 0% | Adverse reaction: Chest pain [4]: (0.5%) | Adverse reaction: Constipation [4]: (41.8%) | Adverse reaction: Cough [4]: (1.8%) | Adverse reaction: Diarrhea [4]: (5.5%) | Adverse reaction: Dizziness [4]: (30.1%) | Adverse reaction: Dry mouth [4]: (1.0%) | Adverse reaction: Dysgeusia [4]: (16.9%) | Adverse reaction: Dyspepsia [4]: (1.9%) | Adverse reaction: Flatulence [4]: (4.0%) | Adverse reaction: Headache [4]: (32.3%) | Adverse reaction: Hypertension [4]: (3.6%) | Adverse reaction: Hypokalemia [4]: (1.4%) | Adverse reaction: Ileus [4]: (0.7%) | Adverse reaction: Incision site erythema [4]: (2.7%) | Adverse reaction: Incision site hematoma [4]: (1.7%) | Adverse reaction: Incision site hemorrhage [4]: (3.0%) | Adverse reaction: Incision site infection [4]: (2.5%) | Adverse reaction: Insomnia [4]: (2.9%) | Adverse reaction: Musculoskeletal pain [4]: (4.9%) | Adverse reaction: Nasopharyngitis [4]: 0% | Adverse reaction: Nausea [4]: (59.6%) | Adverse reaction: Oropharyngeal pain [4]: (1.0%) | Adverse reaction: Pain in extremity [4]: (2.8%) | Adverse reaction: Paresthesia [4]: (13.1%) | Adverse reaction: Post procedural contusion (bruising) [4]: (61.8%) | Adverse reaction: Post procedural discharge [4]: (4.4%) | Adverse reaction: Procedural pain [4]: (17.8%) | Adverse reaction: Pruritus [4]: (18.7%) | Adverse reaction: Pyrexia [4]: (5.7%) | Adverse reaction: Rash [4]: (3.8%) | Adverse reaction: Somnolence [4]: (41.0%) | Adverse reaction: Urinary retention [4]: (1.2%) | Adverse reaction: Vomiting [4]: (21.0%) | Adverse reaction: Wound dehiscence [4]: (1.5%)
